From PubChem BioAssay AID602275 (The Scripps Research Institute Molecular Screening Center, 2012)
Several values for one entry are separate records, joined by “and”; a condition that tells them apart may be missing. Identical values can stand only once. Activity calls are given as the source filed them. The rule behind the calls is not given here.

Columns and labels:
[1] = target: NS3h 2a[JFH1]; assay: NS3h unwinding inhibitors, genotype 1b and 2a – biochemical, real-time fluorescence, strains con1 and JFH1, set 3, selectivity assay for HCV NS3 helicase inhibitor project, late-stage follow-up (AID 602275); conditions: Recombinant NS3h
[2] = target: NS3h 1b[con1]; assay: as above; conditions: Recombinant NS3h

Row | Compound | IC50 [1] | IC50 [2] | outcome [1] | outcome [2]
1 | Cc1ccc2nc(-c3ccc4nc(-c5ccc(NC(=O)c6cc(F)cc(C(F)(F)F)c6)cc5)sc4c3)sc2c1S(=O)(=O)O | 15.8 µM | 28.4 µM |  | 
2 | Cc1ccc2nc(-c3ccc(NC(=O)c4ccc(NC(=S)Nc5ccccc5)cc4)cc3)sc2c1S(=O)(=O)O | 28.7 µM | 28.8 µM |  | 
3 | Cc1ccc2nc(-c3ccc4nc(-c5ccc(NC(=S)Nc6ccccc6)cc5)sc4c3)sc2c1S(=O)(=O)O | 9.6 µM | 9.3 µM |  | 
4 | Cc1ccc2nc(-c3ccc(NC(=O)c4ccc(NC(=O)OCC5c6ccccc6-c6ccccc65)cc4)cc3)sc2c1S(=O)(=O)O | 11.5 µM | 11.8 µM |  | 
5 | Cc1ccc2nc(-c3ccc4nc(-c5ccc(NC(=O)c6ccc(NC(=O)OCC7c8ccccc8-c8ccccc87)cc6)cc5)sc4c3)sc2c1S(=O)(=O)O | 5.8 µM | 5.4 µM |  | 
6 | O=C(CCCCCCC(=O)Nc1ccc(-c2nc3ccccc3[nH]2)cc1)Nc1ccc(-c2nc3ccccc3[nH]2)cc1 | 4.7 µM | 7.5 µM |  | 
7 | Cc1ccc2nc(-c3ccc4nc(-c5ccc(NC(=O)c6cc(C(F)(F)F)cc(C(F)(F)F)c6)cc5)sc4c3)sc2c1S(=O)(=O)O | 28.7 µM |  |  | 
8 | Cc1ccc2nc(-c3ccc4nc(-c5ccc(NC(=O)c6cccc7ccccc67)cc5)sc4c3)sc2c1S(=O)(=O)O | 3.9 µM | 4.5 µM |  | 
9 | O=C(Nc1nc2ccc(Br)cc2s1)c1ccc2ncsc2c1 |  |  | inactive | inactive
10 | Cc1ccc2nc(-c3ccc4nc(-c5ccc6nc(-c7ccc(N)cc7)sc6c5)sc4c3)sc2c1S(=O)(=O)O | 0.6 µM | 0.9 µM |  | 
11 | Cc1ccc2nc(-c3ccc(NC(=O)c4ccc(C(F)(F)F)cc4)cc3)sc2c1S(=O)(=O)O |  |  | inactive | inactive
12 | Cc1ccc2nc(-c3ccc(NC(=S)Nc4ccccc4Br)cc3)sc2c1 | inactive |  |  | inactive
13 | Cc1ccc2nc(-c3ccc4nc(-c5ccc(NC(=O)Nc6ccc(Cl)cc6)cc5)sc4c3)sc2c1S(=O)(=O)O | 4.4 µM | 3.6 µM |  | 
14 | Cc1ccc2nc(-c3ccc(NC(=O)c4ccc(NC(=O)c5ccc(C(F)(F)F)cc5)cc4)cc3)sc2c1S(=O)(=O)O | 14.7 µM | 10.4 µM |  | 
15 | COc1ccc(NC(=O)Nc2ccc(-c3nc4ccc(-c5nc6ccc(C)c(S(=O)(=O)O)c6s5)cc4s3)cc2)cc1 | 6.4 µM | 4.8 µM |  | 
16 | Cc1ccc(NC(=O)Nc2ccc(-c3nc4ccc(-c5nc6ccc(C)c(S(=O)(=O)O)c6s5)cc4s3)cc2)cc1 | 4 µM | 5.3 µM |  | 

Other lines, results leading:

Row | IC50 [1] | IC50 [2] | outcome [1] | outcome [2] | Compound
17 | 5 µM | 8.2 µM |  |  | Cc1ccc2nc(-c3ccc4nc(-c5ccc(NC(=O)c6ccc(C(C)(C)C)cc6)cc5)sc4c3)sc2c1S(=O)(=O)O
18 | 7.4 µM | 5.2 µM |  |  | Cc1ccc2nc(-c3ccc4nc(-c5ccc(NC(=O)c6ccc(Br)cc6)cc5)sc4c3)sc2c1S(=O)(=O)O
19 | 2.5 µM | 3.3 µM |  |  | Cc1ccc(C(=O)Nc2ccc(-c3nc4ccc(-c5nc6ccc(C)c(S(=O)(=O)O)c6s5)cc4s3)cc2)cc1
20 | 5.4 µM | 10 µM |  |  | COc1ccc(C(=O)Nc2ccc(-c3nc4ccc(-c5nc6ccc(C)c(S(=O)(=O)O)c6s5)cc4s3)cc2)cc1
21 |  |  | inactive | inactive | CC(=O)Nc1ccc(-c2nc3ccc(-c4nc5ccc(C)c(S(=O)(=O)O)c5s4)cc3s2)cc1
22 | 2.2 µM and 4.4 µM | 2.7 µM and 3.6 µM |  |  | Cc1ccc2nc(-c3ccc4nc(-c5ccc(NC(=O)c6ccc7ccccc7c6)cc5)sc4c3)sc2c1S(=O)(=O)O
23 | 13 µM | 17.4 µM |  |  | Cc1ccc2nc(-c3ccc4nc(-c5ccc(NC(=O)c6ccc(C(F)(F)F)c(F)c6)cc5)sc4c3)sc2c1S(=O)(=O)O
24 | 6.4 µM | 3.6 µM |  |  | Cc1ccc2nc(-c3ccc4nc(-c5ccc(NC(=O)c6ccc7ncoc7c6)cc5)sc4c3)sc2c1S(=O)(=O)O
25 | inactive |  |  |  | Cc1ccc2nc(-c3ccc4nc(-c5ccc(NC(=O)c6ccncc6)cc5)sc4c3)sc2c1S(=O)(=O)O
26 | 28.3 µM |  |  |  | Cc1ccc2nc(-c3ccc4nc(-c5ccc(NC(=O)c6cccnc6)cc5)sc4c3)sc2c1S(=O)(=O)O
